In patent US8367727B2, “Method of using abscisic acid to treat diseases and disorders” (priority 2006, dated 2013):

Tested on: MCP-1 promoter
Assay: MCP-1 promoter luciferase reporter in 3T3-L1 pre-adipocytes
Assay type: cell-based
Conditions: GW9662 30 μM
Procedure: 3T3-L1 cells (American Type Culture Collection, Manassas, Va.) were grown in 24-well plates in DMEM high glucose medium (Invitrogen, Carlsbad, Calif.) containing 10% fetal bovine serum (FBS) until 60-70% confluence. Before transfection, the medium was changed to 1% FBS. The cells cultured in 24-well plates were co-transfected with 0.8 μg plasmid DNA and 1 ng of pRL reporter control plasmid per well using F-1 transfection reagents (Targeting Systems, Santee, Calif.) according to the manufacturer's protocol. Transfection efficiencies were determined by cotransfecting the cells with a pcDNA™ 3.1/His/lacZ control vector at 24 h. The transfected cells were then treated with either a racemic ABA mixture (12.5 μM; Sigma) or rosiglitazone (1 μM; Cayman Chemicals, Ann Arbor, Mich.) for 24 hours. Designated wells were also treated with the PPAR γ antagonist GW9662 (30 μM; Cayman Chemicals). Transfected cells were harvested in reporter lysis reagent. Luciferase activity, normalized to pRL activity in the cell extracts was determined by using the dual luciferase reporter assay system (Promega, Madison, Wis.) in a TD-20/20 Single-Tube Luminometer (Turner Biosystems, Sunnyvale, Calif.). Relative luciferase activity (RLA) was calculated as a ratio of the chemiluminescence 10 seconds after the Luciferase Assay Reagent II (Promega) was added over the chemiluminescence 10 seconds after the Stop&Glo Reagent (Promega).
To further examine the effect of ABA on MCP-1 transactivation, 3T3-L1 preadipocytes were transfected with a MCP-1 promoter luciferase reporter construct and also cotransfected with a pCMX PPAR γ expression plasmid to increase endogenous PPAR γ activity. Cells were then treated with ABA (12.5 μM), rosiglitazone (1 μM), the PPAR γ antagonist GW9662 (30 μM), or a combination of agonist and inhibitor.

O=C(Nc1ccccc1)c1cc([N+](=O)[O-])ccc1Cl [GW9662, reference compound]
inhibition of the effects of ABA and rosiglitazone on MCP-1 promoter activity: inhibited
